Assay results taken from US8476283B2, “[6,5]—bicyclic GPR119 G protein-coupled receptor agonists” (Bristol-Myers Squibb Company, priority 2007, dated 2013).

Molecular target: T1, GPR119 (Homo sapiens, UniProt Q8TDV5)
T1 construct: expressed in transfected cells; host or cells: Flp-In-T-REx 293
T1 sequence (Q8TDV5 1-335): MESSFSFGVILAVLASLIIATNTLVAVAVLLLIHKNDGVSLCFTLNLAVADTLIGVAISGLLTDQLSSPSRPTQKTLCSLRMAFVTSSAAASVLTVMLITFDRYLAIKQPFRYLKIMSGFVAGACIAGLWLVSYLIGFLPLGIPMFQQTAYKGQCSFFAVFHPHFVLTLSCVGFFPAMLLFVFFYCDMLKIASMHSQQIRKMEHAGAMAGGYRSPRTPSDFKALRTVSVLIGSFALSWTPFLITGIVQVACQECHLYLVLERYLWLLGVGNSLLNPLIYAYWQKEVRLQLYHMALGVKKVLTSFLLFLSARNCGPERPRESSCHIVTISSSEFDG
Test: Human Tet-Inducible cAMP Assay (hEC50, Table 1)
Format: cell-based
Set-up: IA: scale not given here
Settings: for IA: IA as printed beside hEC50 (not defined in the text); for EC50: human GPR119 agonist activity, cAMP
Procedure: The in vitro modulation of GPR119 was determined as follows.
Human Tet-Inducible cAMP Assay
Cell lines using the Flp-In-T-REx 293 tetracycline inducible gene expression system are cultured in culture medium comprising the following components: DMEM#11965, 10% FBS, 2 mM L-glutamine, 200 ug/ml Hygromycin B, and 15 ug/ml blasticidin.
For cAMP assays, cells are plated on 96 well plates (e.g., BD Falcon: REF 353948, black side, clear bottom, TC surface) at a density of about 4.5×10^4 cells per well in growth medium containing 1.0 ug/ml tetracycline (1.0 mg/ml stock). The cells are then incubated for 48 hours at 37° C.
Following the incubation, the growth medium is removed from the wells and the wells rinsed (once) with the assay buffer included in the Hit Hunter cAMP kit (100 μl/well). Following the wash, 20 μl of assay buffer is added to each well, followed by addition of 10 μl of a 3× concentration compound working solution. The solution is then mixed. The final concentration range of compound is from about 10^−5M to about 10^−11M. The reagents are then incubated at 37° C. at 5% CO2 for 1 hour.
The manufacturer's protocol may be followed for cAMP determination. The Hit Hunter cAMP kit protocol is outlined for the HIT-T15 cAMP assays described above.

IA | EC50 | Compound
0.55 | 1390 nM | CC(C)(C)OC(=O)N1CCC(n2nnc3c(Nc4ccc(S(C)(=O)=O)cc4F)nccc32)CC1 [Example 1, tert-Butyl 4-(4-(2-fluoro-4-(methylsulfonyl)phenylamino)-1H-[1,2,3]triazolo[4,5-c]pyridin-1-yl)piperidine-1-carboxylate]
0.29 | 3550 nM | CC(C)(C)OC(=O)N1CCC(n2nnc3c(Oc4ccc(S(C)(=O)=O)cc4)nccc32)CC1 [Example 2, tert-Butyl 4-(4-(4-(methylsulfonyl)phenoxy)-1H-[1,2,3]triazolo[4,5-c]pyridin-1-yl)piperidine-1-carboxylate]
– | 19.5 nM | CC(C)(C)OC(=O)N1CCC(n2nnc3c(Nc4ccc(S(C)(=O)=O)cc4F)ncnc32)CC1 [Example 3, tert-Butyl 4-(7-(2-fluoro-4-(methylsulfonyl)phenylamino)-3H-[1,2,3]triazolo[4,5-d]pyrimidin-3-yl)piperidine-1-carboxylate]
0.70 | 287 nM | CC(C)(C)OC(=O)N1CCC(n2cnc3c(Nc4ccc(C#N)cc4F)ncnc32)CC1 [Example 4, tert-Butyl 4-(6-(4-cyano-2-fluorophenylamino)-9H-purin-9-yl)piperidine-1-carboxylate]
0.27 | 411 nM | CC(C)(C)OC(=O)N1CCC(n2nnc3c(Nc4ccc(C#N)cc4Cl)nccc32)CC1 [Example 5, tert-Butyl 4-(4-(2-chloro-4-cyanophenylamino)-1H-[1,2,3]triazolo[4,5-c]pyridin-1-yl)piperidine-1-carboxylate]
0.86 | 140 nM | CC(C)OC(=O)N1CCC(n2nnc3c(Nc4ccc(S(C)(=O)=O)cc4F)ncnc32)CC1 [Example 6, iso-Propyl 4-(7-(2-fluoro-4-(methylsulfonyl)phenylamino)-3H-[1,2,3]triazolo[4,5-d]pyrimidin-3-yl)piperidine-1-carboxylate]
0.68 | 74.9 nM | CC(C)OC(=O)N1CCC(n2nnc3c(Nc4ccc(S(C)(=O)=O)cc4Cl)ncnc32)CC1 [Example 7, iso-Propyl 4-(7-(2-chloro-4-(methylsulfonyl)phenylamino)-3H-[1,2,3]triazolo[4,5-d]pyrimidin-3-yl)piperidine-1-carboxylate]
0.67 | 218 nM | CS(=O)(=O)c1ccc(Nc2ncnc3c2nnn3C2CCN(c3ncccn3)CC2)c(F)c1 [Example 8, N-(2-Fluoro-4-(methylsulfonyl)phenyl)-3-(1-(pyrimidin-2-yl)piperidin-4-yl)-3H-[1,2,3]triazolo[4,5-d]pyrimidin-7-amine]
0.56 | 263 nM | CCc1cnc(N2CCC(n3nnc4c(Nc5ccc(S(C)(=O)=O)cc5F)ncnc43)CC2)nc1 [Example 9, 3-(1-(5-Ethylpyrimidin-2-yl)piperidin-4-yl)-N-(2-fluoro-4-(methylsulfonyl)phenyl)-3H-[1,2,3]triazolo[4,5-d]pyrimidin-7-amine]
0.79 | 407 nM | CC(C)OC(=O)N1CCC(n2cnc3c(Nc4ccc(S(C)(=O)=O)cc4F)ncnc32)CC1 [Example 10, iso-Propyl 4-(6-(2-fluoro-4-(methylsulfonyl)phenylamino)-9H-purin-9-yl)piperidine-1-carboxylate]
0.81 | 367 nM | CS(=O)(=O)c1ccc(Nc2ncnc3c2ncn3C2CCN(c3ncccn3)CC2)c(F)c1 [Example 11, N-(2-Fluoro-4-(methylsulfonyl)phenyl)-9-(1-(pyrimidin-2-yl)piperidin-4-yl)-9H-purin-6-amine]
0.47 | 203 nM | CS(=O)(=O)c1ccc(Nc2ncnc3c2cnn3C2CCN(C(=O)OCc3ccccc3)CC2)c(F)c1 [Example 12, Benzyl 4-(4-(2-fluoro-4-(methylsulfonyl)phenylamino)-1H-pyrazolo[3,4-d]pyrimidin-1-yl)piperidine-1-carboxylate]
0.69 | 308 nM | CC(C)OC(=O)N1CCC(n2ncc3c(Nc4ccc(S(C)(=O)=O)cc4F)ncnc32)CC1 [Example 13, Isopropyl 4-(4-(2-fluoro-4-(methylsulfonyl)phenylamino)-1H-pyrazolo[3,4-d]pyrimidin-1-yl)piperidine-1-carboxylate]
0.76 | 545 nM | CS(=O)(=O)c1ccc(Nc2ncnc3c2cnn3C2CCN(c3ncccn3)CC2)c(F)c1 [Example 14, N-(2-Fluoro-4-(methylsulfonyl)phenyl)-1-(1-(pyrimidin-2-yl)piperidin-4-yl)-1H-pyrazolo[3,4-d]pyrimidin-4-amine]
0.94 | 76.2 nM | CCc1cnc(N2CCC(n3ncc4c(Nc5ccc(S(C)(=O)=O)cc5F)ncnc43)CC2)nc1 [Example 15, 1-(1-(5-Ethylpyrimidin-2-yl)piperidin-4-yl)-N-(2-fluoro-4-(methylsulfonyl)phenyl)-1H-pyrazolo[3,4-d]pyrimidin-4-amine]
1.11 | 81.8 nM | CCCc1cnc(N2CCC(n3ncc4c(Nc5ccc(S(C)(=O)=O)cc5F)ncnc43)CC2)nc1 [Example 16, N-(2-Fluoro-4-(methylsulfonyl)phenyl)-1-(1-(5-propylpyrimidin-2-yl)piperidin-4-yl)-1H-pyrazolo[3,4-d]pyrimidin-4-amine]
0.31 | 1900 nM | Cc1ncccc1Oc1ncnc2c1cnn2C1CCN(C(=O)OCc2ccccc2)CC1.Cl [Example 17, Benzyl 4-(4-(2-methylpyridin-3-yloxy)-1H-pyrazolo[3,4-d]pyrimidin-1-yl)piperidine-1-carboxylate, hydrochloride salt]
0.17 | 2720 nM | Cc1ncccc1Oc1ncnc2c1cnn2C1CCN(C(=O)OC(C)C)CC1.Cl [Example 18, Isopropyl 4-(4-(2-methylpyridin-3-yloxy)-1H-pyrazolo[3,4-d]pyrimidin-1-yl)piperidine-1-carboxylate, hydrochloride salt]
0.13 | 505 nM | CC(C)OC(=O)N1CCC(n2ncc3c(Oc4cccnc4C#N)ncnc32)CC1 [Example 19, Isopropyl 4-(4-(2-cyanopyridin-3-yloxy)-1H-pyrazolo[3,4-d]pyrimidin-1-yl)piperidine-1-carboxylate]
